Reference: patent US10501493B2, “Broad spectrum antibiotics” (priority 2011, dated 2019)
Converted amounts (≈) assume the structure as drawn. Where two headings read alike, the source gives them in different places.

How the values were obtained:
E. coli ATCC 25922 = test: In vitro antimicrobial activity, MIC by broth micro-dilution; type: cell-based; settings: for MIC: Escherichia coli, ATCC25922, read-out: MIC class, E. coli ATCC 25922
Protocol: (§1) In vitro antimicrobial activity of each compound was determined by measuring minimal inhibitor concentrations (MICs) using the broth micro-dilution technique as approved by the Clinical and Laboratory Standards Institute (CLSI). The microbiological panel examined contains a number of bacterial species including E. coli MG1655, P. aeruginosa, S. aureus, and S. epidermidis. In addition, the panel includes previously described pseudo-isogenic strains of these four species (P. A. Smith et al. Chem Biol 2010, 1223-1231), in which a specific proline residue in SPase (called LepB in Gram-negative organisms an SpsB in Gram-positive organisms) has been mutated to a different amino acid. The resulting strains have increased susceptibility to the arylomycin class of antibiotics. Analysis of the strains lacking this proline residue will increases the dynamic range of the assay, and comparison of the sensitivities of the isogenic pairs provides ongoing confirmation that the activity gained through derivatization is specific to the inhibition of SPase. Briefly, bacterial streaks were grown on Mueller Hinton Agar II (Difco™) with or without 5% lysed horse blood for a period of 24 hours at either 35° C. or 28° C. Bacterial colonies were suspended in cation adjusted Mueller Hinton broth and diluted to a final concentration of 1*10^7 colony forming units/ml. Two-fold serial dilutions of each compound were arrayed into 96-well plates (100 μl final volume per well) and 5 ul of the bacterial suspension will be added. […] MICs were periodically checked plating serial dilutions of MIC wells and quantitatively determining viable colonies.

[1] = tested on: S. aureus NCTC-8325 SpsB(P295); test: as above; type: cell-based; settings: for MIC: Staphylococcus aureus, NCTC8325, read-out: MIC class, S. aureus NCTC-8325 SpsB(P295)
Protocol: as §1

S. epidermidis RP62A = test: as above; type: cell-based; settings: for MIC: Staphylococcus epidermidis, RP62A, read-out: MIC class, S. epidermidis RP62A
Protocol: as §1

S. pneumoniae D39 = test: as above; type: cell-based; settings: for MIC: Streptococcus pneumoniae, D39, read-out: MIC class, S. pneumoniae D39
Protocol: as §1

[2] = tested on: E. col ATCC 25922 LepB(P84L); test: as above; type: cell-based, E. coli; settings: for MIC: Escherichia coli, ATCC25922, read-out: MIC class, E. col ATCC 25922 LepB(P84L)
Protocol: as §1

E. coli SPase = target: T1, E. coli SPase (Escherichia coli, UniProt P00803); test: Enzymatic fluorogenic substrate cleavage assay for IC50; type: biochemical
T1 construct: Full length His-tagged E. coli SPase proteins were expressed in E. coli BL21(DE3); His-tag; made in house; host or cells: E. coli BL21(DE3)
Protocol: (§2) Full length His-tagged E. coli SPase proteins were expressed in E. coli BL21(DE3) containing the plasmid pET23-lepB, P. A. Smith et al. Chem Biol 2010, 1223-1231. Briefly, saturated overnight cultures grown in 20 ml of Luria-Bertani medium supplemented with ampicillin were subcultures into 1.5 L of Luria-Bertani, and shaken at 37° C. until an optical density at 600 nm of 0.4-0.5 was achieved. Protein expression was induced with Isopropyl β-D-1-thiogalactopyranoside (ITPG) at a final concentration of […], and purified using nickel affinity chromatography. Full length His-tagged S. aureus SPase protein was expressed similarly from E. coli BL21(DE3) containing the plasmid pCDF1-SaSpsB or pCDF1-SaSpsB(P29S) and purified similarly to the E. coli protein with the following exceptions. SPase protein was solubilized using 300 mM NaCl, 20 mM Tris pH 8.06, 5 mM Imidazole, 10% glycerol, 1% Triton X-100, prior to purification in Ni-NTA Superflow resin and resin bound protein was washed in a similar buffer containing 1% Elugent in place of Triton X-100 prior to protein eluted in wash buffer supplemented with 300 mM imidazole. Protein purify was judged to exceed 95% by visual inspection of SDS-PAGE followed by Comassie staining. All protein concentrations were determined by BCA assay.
(§3) In addition to the equilibrium binding assays, compound activity is also characterized by measuring inhibition of E. coli and S. aureus substrate cleavage reactions using fluorogenic peptides developed at RQx Pharmaceuticals. Briefly, two fluorogenic peptide substrates (decanoyl-LSSPA Y^NO2 A ? ADK^abzPD (SEQ ID NO: 1) and decanyol-LTPTAY^NO2 A ? ASKK^abzDD (SEQ ID NO: 2)) have been synthesized, where abz is the fluorescence donor 2-aminobenzamide, YNO2 is the fluorescence acceptor 3-nitrotyrosine, and the cleavage site is indicated with an arrow. These substrates are processed with a second order rate constant (Kcat/KM) of 10^5 M^−1s^−1 for E. coli and S. aureus SPase enzymes, and cleavage results in a greater than 10-fold increase in fluorescence signal (excitation at 314 nm, emission at 416 nm) as measured using a SpectraMax M2 fluorescence microplate reader. Two-folder serial dilutions of compound are prepared in cleavage reaction buffer consisting of: 50 mM Tris-HCl pH 8.0, 100 mM NaCl, 10% glycerol, 1 mM EDTA, detergent (1% NP-40 or 0.1% Elugent™ for E. coli LepB or S. aureus SpsB respectively) and either 2.5 nM of E. coli SPase enzyme or 10 nM of S. aureus SPase enzyme. 40 μl aliquots of the compound dilution series in the protein/buffer solution is transferred to black 384-well polypropylene plates, and 10 μl of fluorogenic peptide at a concentration of 100 μM is added to initiate the reaction. The increase in fluorescence, corresponding to substrate cleavage, is monitored continuously at room temperature for 30 minutes and initial reaction rates are calculated based in the linear increase in fluorescence from the initial 30 minutes of the reaction. Reaction rates are plotted as a function of compound concentration, and IC50 values are determined nonlinear regression analysis (SoftMax® Pro v5.4) of the sigmoidal dose-response curve.

S. aureus SPase = target: T2, S. aureus SPase (Staphylococcus aureus, UniProt P0A070); test: as above; type: biochemical
T2 construct: Full length His-tagged S. aureus SPase protein was expressed similarly; His-tag; made in house; host or cells: E. coli BL21(DE3)
Protocol: as §2, §3

S. aurues NCTC-8325 = test: In vitro antimicrobial activity, MIC by broth micro-dilution; type: cell-based, S. aureus; settings: for MIC: Staphylococcus aureus, NCTC8325, read-out: MIC class, S. aurues NCTC-8325
Protocol: as §1

| Structure (SMILES) | MIC (E. coli ATCC 25922) [mg/L] | MIC [1] [mg/L] | MIC (S. epidermidis RP62A) [mg/L] | MIC (S. pneumoniae D39) [mg/L] | MIC [2] [mg/L] | IC50 (E. coli SPase) [µM] | IC50 (S. aureus SPase) [µM] | MIC class, E. coli ATCC 25922 (E. coli ATCC 25922) | MIC class, S. aureus NCTC-8325 SpsB(P295) [1] | MIC class, S. epidermidis RP62A (S. epidermidis RP62A) | MIC class, S. pneumoniae D39 (S. pneumoniae D39) | MIC class, E. col ATCC 25922 LepB(P84L) [2] | IC50 (E. coli SPase; fluorogenic peptide cleavage, read-out: IC50 class E. coli SPase) [µM] | IC50 (S. aureus SPase; fluorogenic peptide cleavage, read-out: IC50 class S. aureus SPase) [µM] | MIC (S. aurues NCTC-8325) [mg/L] | MIC class, S. aurues NCTC-8325 (S. aurues NCTC-8325; S. aurues NCTC-8325) |
| --- | --- | --- | --- | --- | --- | --- | --- | --- | --- | --- | --- | --- | --- | --- | --- | --- |
| CCCCCCCCCCCCCCCC(=O)N(C)[C@H](CO)C(=O)N[C@H](Cc1ccccc1)C(=O)NCC(=O)N(C)[C@@H]1C(=O)N[C@@H](C)C(=O)N[C@H](C(=O)O)Cc2ccc(O)c(c2)-c2cc1ccc2O [Compound 39] | > 64 | > 64 | 16 to 64 (≈ 16.7 to 66.9 µM) | 16 to 64 (≈ 16.7 to 66.9 µM) | < 8 | < 1 | < 1 |  |  |  |  |  |  |  |  |  |
| CCCCCCCCCCCCCCCC(=O)N(C)[C@H](CO)C(=O)N[C@H](CCc1ccccc1)C(=O)NCC(=O)N(C)[C@@H]1C(=O)N[C@@H](C)C(=O)N[C@H](C(=O)O)Cc2ccc(O)c(c2)-c2cc1ccc2O [Compound 41] | > 64 | > 64 | < 8 | > 64 | > 64 | < 1 | < 1 |  |  |  |  |  |  |  |  |  |
| CCCCCCCCCCCCCCCC(=O)N(C)[C@H](CN)C(=O)N[C@H](C)C(=O)NCC(=O)N(C)[C@@H]1C(=O)N[C@@H](C)C(=O)N[C@H](C(=O)O)Cc2ccc(O)c(c2)-c2cc1ccc2O [Compound 52] |  |  |  |  |  |  |  | a (MIC >64 μg/ml) | b (MIC 16-64 μg/ml) | b (MIC 16-64 μg/ml) | b (MIC 16-64 μg/ml) | a (MIC >64 μg/ml) | 1 to 10 | < 1 |  |  |
| CCCCCCCCCCCCCCCC(=O)N[C@H](CCN)C(=O)N[C@H](C)C(=O)NCC(=O)N(C)[C@@H]1C(=O)N[C@@H](C)C(=O)N[C@H](C(=O)O)Cc2ccc(O)c(c2)-c2cc1ccc2O [Compound 53] | > 64 | > 64 | 16 to 64 (≈ 18.2 to 72.7 µM) | 16 to 64 (≈ 18.2 to 72.7 µM) | > 64 | 1 to 10 | < 1 |  |  |  |  |  |  |  |  |  |
| CCCCCCCCCCCCCCCC(=O)N(C)[C@H](CO)C(=O)N[C@H](C)C(=O)NCC(=O)N(C)[C@@H]1C(=O)N[C@@H](C)C(=O)N[C@H](C(=O)NCCO)Cc2ccc(O)c(c2)-c2cc1ccc2O [Compound 54] | > 64 | 16 to 64 (≈ 17.3 to 69.3 µM) | < 8 | < 8 | < 8 | < 1 | 1 to 10 |  |  |  |  |  |  |  |  |  |
| CCCCCCCCCCCCCCCC(=O)N(C)[C@H](CO)C(=O)N[C@H](C)C(=O)NCC(=O)N(C)[C@@H]1C(=O)N[C@@H](C)C(=O)N[C@H](C(=O)OCCN)Cc2ccc(O)c(c2)-c2cc1ccc2O [Compound 55] | > 64 | > 64 | < 8 | < 8 | 16 to 64 (≈ 17.3 to 69.3 µM) | 1 to 10 | 1 to 10 |  |  |  |  |  |  |  |  |  |
| CCCCCCCCCCCCCCCC(=O)N(C)[C@H](CO)C(=O)N[C@H](C)C(=O)NCC(=O)N(C)[C@@H]1C(=O)N[C@@H](C)C(=O)N[C@H](C(=O)N[C@@H](C)CO)Cc2ccc(O)c(c2)-c2cc1ccc2O [Compound 56] | > 64 | > 64 | < 8 | 16 to 64 (≈ 17.1 to 68.2 µM) | > 64 | 1 to 10 | > 10 |  |  |  |  |  |  |  |  |  |
| CCCCCCCCCCCCCCCC(=O)N(C)[C@H](CO)C(=O)N[C@H](C)C(=O)NCC(=O)N(C)[C@@H]1C(=O)N[C@@H](C)C(=O)N[C@H](C(=O)OC[C@H](C)N)Cc2ccc(O)c(c2)-c2cc1ccc2O [Compound 57] | > 64 | > 64 | < 8 | 16 to 64 (≈ 17.1 to 68.2 µM) | 16 to 64 (≈ 17.1 to 68.2 µM) | 1 to 10 | 1 to 10 |  |  |  |  |  |  |  |  |  |
| CCCCCCCCCCCCCCCC(=O)N(C)C(CO)C(=O)N[C@H](C)C(=O)NCC(=O)N(C)[C@@H]1C(=O)N[C@@H](C)C(=O)NC(C(=O)NCC(=O)C(=O)N(C)C)Cc2ccc(O)c(c2)-c2cc1ccc2O (stereo partly shown) [Compound 59] | > 64 | > 64 | < 8 | 16 to 64 (≈ 16.1 to 64.4 µM) | 16 to 64 (≈ 16.1 to 64.4 µM) | < 1 | 1 to 10 |  |  |  |  |  |  |  | > 64 |  |
| CCCCCCCCCCCCCCCC(=O)N(C)[C@H](CO)C(=O)N[C@H](C)C(=O)NCC(=O)N(C)[C@@H]1C(=O)N[C@@H](C)C(=O)N[C@H](C(=O)NCC(=O)NS(C)(=O)=O)Cc2ccc(O)c(c2)-c2cc1ccc2O [Compound 60] | > 64 | > 64 | < 8 | < 8 | < 8 | < 1 | 1 to 10 |  |  |  |  |  |  |  | > 64 |  |
| CCCCc1ccc(-c2ccc(C(=O)N(C)[C@H](CO)C(=O)N[C@H](C)C(=O)N[C@@H](CCCCN)C(=O)N(C)[C@@H]3C(=O)N[C@@H](C)C(=O)N[C@H](C(=O)O)Cc4ccc(O)c(c4)-c4cc3ccc4O)cc2)cc1 [Compound 96] |  |  |  |  |  |  |  | a (MIC >64 μg/ml) | a (MIC >64 μg/ml) | b (MIC 16-64 μg/ml) | a (MIC >64 μg/ml) | b (MIC 16-64 μg/ml) |  |  |  | a (MIC >64 μg/ml) |
| CCCCCCc1ccc(C(=O)N(C)[C@H](CO)C(=O)N[C@H](C)C(=O)N[C@@H](CCCCN)C(=O)N(C)[C@@H]2C(=O)N[C@@H](C)C(=O)N[C@H](C(=O)O)Cc3ccc(O)c(c3)-c3cc2ccc3O)cc1 [Compound 97] | > 64 |  | 16 to 64 (≈ 17.7 to 70.9 µM) | > 64 | 16 to 64 (≈ 17.7 to 70.9 µM) |  |  |  |  |  |  |  |  |  | > 64 |  |
| CCCCc1ccc(-c2ccc(C(=O)N[C@H](CO)C(=O)N[C@H](C)C(=O)N[C@@H](CCCCN)C(=O)N(C)[C@@H]3C(=O)N[C@@H](C)C(=O)N[C@H](C(=O)O)Cc4ccc(O)c(c4)-c4cc3ccc4O)cc2)cc1 [Compound 98] | > 64 |  | 16 to 64 (≈ 17.1 to 68.4 µM) | > 64 | < 8 |  |  |  |  |  |  |  |  |  | > 64 |  |
